Measurements: patent US20040082554A1, “Neuroactive steroid derivatives and method of use” (priority 2003, published 2004)
“Also recorded” adds a separate entry of the source.

Columns and labels:
NMDA receptor [1] = experiment: NMDA-induced striatal dopamine release, in vivo microdialysis; set-up: species or system rat
Method: In vivo Microdialysis. Prior to surgery the animals were anesthetized with sodium pentobarbital (50 mg/kg, i.p) and placed in a stereotaxic apparatus (David Kopf Instruments). A rostro-caudal incision was then made to expose the dorsal surface of the skull. A hole was drilled in the skull above the striatum with a stereotaxic drill (+0.5 mm A/P and +2.9 mm M/L relative to bregma, (Paxinos and Watson, 1997). Two other holes were drilled in the skull where screws were secured. A dialysis guide cannula (CMA Microdialysis; Acton, Mass.) was lowered 3 mm ventrally and was then secured to the skull with dental cement. All rats were housed in individual cages following surgery.
No less than two days after surgery, the rats were briefly anesthetized with isoflurane to facilitate the removal of the dummy from the guide cannula and insertion of a microdialysis probe (CMA 10, dialysis membrane length of 2 mm of polycarbonate, with a molecular weight cut off of 20 kD) into the striatum. Animals were allowed to recover for 15 min prior to the initiation of the experiment following probe insertion. Artificial cerebrospinal fluid (aCSF) was pumped through the dialysis probe at a rate of 2 μl/min. Twelve 20 min samples were collected over 240 min and immediately stored at −20° C. The first six 20 min samples were collected to establish the baseline concentration of dopamine. […] At this point the perfusate for the DMSO group was changed from aCSF to one of the following solutions: NMDA (1 mM) or NMDA (1 mM) plus D-AP5 (100-200 μM). The perfusate for the steroid group was switched from aCSF to NMDA (1 mM). After collection of sample 7, the perfusate was switched back to aCSF and 5 more 20 min samples were collected. Upon termination of the experiment, samples were stored at −80° C. until analysis.
All samples were analyzed using high pressure liquid chromatography (HPLC) with electrochemical detection (ESA; Chelmsford, Mass.). The mobile phase consisted of 50 mM Na2HPO4, 20 mM citric acid, 1.5 mM heptanosulfonic acid, 0.1 mM EDTA, and 5% methanol at pH 4.0. The dopamine was separated on a 15 cm reverse phase C-18 column (Alltech; Deerfield, Ill.) and oxidized at a potential of 175 mV. Dopamine concentrations per sample were normalized to an external standard curve and plotted as percentage change from baseline.

mice = experiment: Tail flick test (latency to remove the tail from the light source); assay type: in vivo; conditions: for dose dependence of tail flick latency: mice, 5, 10 or 15 mg/kg i.p., tested every 10 min for 120 min
Method: FIG. 9. […] Following the injection the mice were tested for every 10 min for 120 min. The latency to remove the tail from the light source was used as a measure of analgesia. […] The values are mean+SEM for 10-15 mice for each group. Data were analyzed using a one-way ANOVA followed by Fisher's LSD.* Denotes significance compared to control.
FIG. 10. […] Mice were injected with PACME (5, 10 or 15 mg/kg). Following the injection the mice were tested for every 10 min for 120 min. The latency to remove the tail from the light source was used as a measure of analgesia. […] Data were analyzed using a one-way ANOVA followed by Fisher's LSD. The values are mean±SEM for 10-15 mice for each group.* Denotes significance compared to control.
The data were analyzed using a one-way ANOVA followed by Fisher's LSD.

rats = experiment: Cocaine sensitization (horizontal activity after daily cocaine injections); assay type: in vivo, rat
Method: Cocaine Sensitization. Rats were habituated to the photocell apparatus (AccuScan Instruments; Columbus, Ohio) for two hours and administered saline (i.p.) one day prior to the start of the experiment. On the first day of the experiment, rats were rehabituated to the behavior boxes for one hour prior to the start of the experiment. […] Horizontal activity was measured for 2 hours after every cocaine injection. Saline-cocaine or 3α5βHS-cocaine were administered daily on 7 consecutive days.

NMDA receptor [2] = experiment: Behavioral hyperactivity (horizontal activity) induced by intra-striatal microinjection of NMDA; assay type: in vivo, rat
Method: Microinjection Experiments. Rats were anesthetized with sodium pentobarbital (50 mg/kg, i.p.) and placed in a stereotaxic apparatus (David Kopf Instruments). A rostro-caudal incision was then made to expose the dorsal surface of the skull. Two bilateral holes were drilled above the striatum (+1.0 mm A/P, +3.0 mm M/L, −3.0 mm D/V relative to bregma, Paxinos and Watson, 1997) and guide cannulae (9 mm, 24 gauge) were implanted and fastened to the skull using screws and dental cement. All rats were housed in individual cages following surgery. Three days post surgery rats were habituated to the photocell apparatus (AccuScan Instruments; Columbus, Ohio) for two hours. On the day of the experiment rats were rehabituated for one hour prior to the start of the experiment. […] The animals were returned to the behavior boxes and activity was monitored continuously for 60 min.
Horizontal activity was measured in 5 min blocks for 60 min immediately following microinjection. The data were analyzed with a mixed factors analysis of variance (ANOVA) with repeated measures over time in FIG. 4A. […] The data in FIG. 4B represent the 10 min time point from FIG. 4A and was analyzed using a one-way ANOVA.

NMDA receptors = conditions: in vitro studies, Park-Chung et al., 1994; cited from earlier work

NC(CCCP(=O)(O)O)C(=O)O [D-AP5]
effect on NMDA-induced increase in extracellular striatal dopamine (NMDA receptor [1]; 100 μM or 200 μM co-perfused with 1 mM NMDA): inhibited; also recorded: attenuated in a dose-dependent manner

CC(=O)[C@H]1CC[C@H]2[C@@H]3CC[C@@H]4C[C@H](OCC(=O)O)CC[C@]4(C)[C@H]3CC[C@]12C [PACME, pregnanolone carboxy methyl ether]
tail flick latency at 90 and 120 min (mice; PACME 10 mg/kg): increased the latency | analgesia compared to control (pair-wise analysis) (mice; PACME 7 and 10 mg/kg, at 20, 30, 40, 60 min following injection): significant levels of analgesia | lengthening of tail flick latency relative to cut-off time (mice; PACME, dose not stated, cut-off time 10 seconds): near maximal lengthening of the latency time | dose dependence of tail flick latency (mice): increased the latency to remove the tail from the light source dose-dependently | duration of analgesic effect compared with morphine (2 mg/kg, s.c.) (mice; tail flick, mice): longer lasting | analgesia compared with morphine (mice; tail flick, mice, PACME vs morphine 2 mg/kg s.c.): analgesia similar to that of morphine

CN1CC[C@]23c4c5ccc(O)c4O[C@H]2[C@@H](O)C=C[C@H]3[C@H]1C5 [morphine, reference compound]
time of greatest analgesic effect following injection (mice; morphine 2 mg/kg s.c.): 20 min | analgesia compared to control (pair-wise analysis) (mice; morphine 2 mg/kg s.c., from 20 min to 60 or 90 min following injection): significant levels of analgesia

CC(=O)[C@H]1CC[C@H]2[C@@H]3CC[C@@H]4C[C@H](O)CC[C@]4(C)[C@H]3CC[C@]12C [pregnanolone]
effect on NMDA-induced increase in extracellular striatal dopamine (NMDA receptor [1]; 160 μg/kg i.p. (sub-sedative dose)): had no effect | effect on NMDA-induced increase in extracellular striatal dopamine (NMDA receptor [1]; 160 μg/kg i.p. (sub-sedative dose), listed as Pregnanolone): no influence

pregnanolone hemisuccinate [3α5βHS]
effect on development of behavioral sensitization to cocaine (rats; 10 mg/kg i.p. 10 min prior to each of 7 daily cocaine injections (15 mg/kg i.p.)): inhibits the initiation of behavioral sensitization to cocaine; also recorded: inhibited the development of behavioral sensitization to cocaine | effect on behavioral hyperactivity induced by saline administration or an acute cocaine injection (rats; highest dose used): had no effect | tail flick latency at 90 and 120 min (mice; 3α5βHS 15 mg/kg, compared to the other groups): effective in increasing the latency | analgesia compared to control (pair-wise analysis) (mice; 10 and 15 mg/kg i.p., at 20, 30, 40, 60, 90 min): significant levels of analgesia | dose dependence of tail flick latency (mice): dose-dependent increase in tail flick latency; also recorded: increased the latency to remove the tail from the light source dose-dependently | duration of analgesic effect compared with morphine (2 mg/kg, s.c.) (mice; tail flick, mice): longer lasting | sedation (saline+3α5βHS vs saline+vehicle horizontal activity) (NMDA receptor [2]; 10 mg/kg i.p., any time point): did not induce sedation | effect on NMDA-induced behavioral activation (horizontal activity) (NMDA receptor [2]; 1 and 10 mg/kg i.p. 10 min prior to intra-striatal NMDA, 10 min time point): decrease in horizontal activity; also recorded: blocked | action on NMDA receptors in vitro (NMDA receptors): inhibits NMDA receptors | effect on NMDA-induced increase in extracellular striatal dopamine (NMDA receptor [1]; 5, 10 and 20 mg/kg i.p., 20 and 40 min following NMDA perfusion): inhibits NMDA-induced dopamine release; also recorded: blocked | EC50 for inhibition of NMDA-induced dopamine release (NMDA receptor [1]; i.p. injection, 1 mM NMDA perfusion, at 20 min): 4 mg/kg
